In ChEMBL document CHEMBL1143283, “Preliminary biological evaluations of new thalidomide analogues for multiple sclerosis application” (Bioorg Med Chem Lett, 2009):
Active and inactive are the calls of the source. The rule behind the calls is not given here.

What was measured:
Mus musculus [1] = experiment: Antiangiogenesis activity against MOG peptide, pertussis toxin, Mycobacterium tuberculosis-induced experimental allergic encephalomyelitis C57BL/6J mouse model assessed as inhibition of multiple sclerosis at dose equivalent to 100 mg/kg of thalidomide up to 15 days; assay type: functional, organism-based; set-up: dose 100 mg/kg
EA.hy 926 [2] = experiment: Antiproliferative activity against human EAhy926 cells at 10 uM; assay type: functional, cell-based
EA.hy 926 [3] = experiment: Antiproliferative activity against human EAhy926 cells at 12 uM; assay type: functional, cell-based
[4] = Antiproliferative activity against human EAhy926 cells; assay type: functional, cell-based; details: EA.hy 926
Mus musculus [5] = experiment: Antiangiogenesis activity against MOG peptide, pertussis toxin, Mycobacterium tuberculosis-induced experimental allergic encephalomyelitis C57BL/6J mouse model assessed as inhibition of multiple sclerosis at 100 mg/kg up to 15 days; assay type: functional, organism-based; set-up: dose 100 mg/kg

With `O=C1CCC(N2C(=O)c3ccc(NCCCCC(NC(=O)[C@H](O)[C@H](O)[C@H](O[C@@H]4O[C@H](CO)[C@H](O)[C@H](O)[C@H]4O)[C@H](O)CO)C(=O)NCCC(F)(F)C(F)(F)C(F)(F)C(F)(F)C(F)(F)C(F)(F)C(F)(F)C(F)(F)F)cc3C2=O)C(=O)N1` (stereo partly drawn) the Activity (Mus musculus [1]) was “inactive”.
With `NCCNc1ccc2c(c1)C(=O)N(C1CCC(=O)NC1=O)C2=O` (stereo not drawn) the Activity (Mus musculus [1]) was “inactive”, the Activity (EA.hy 926 [2]) was “inactive” and the Activity (EA.hy 926 [3]) was “inactive”.
`CC(C)(C)OC(=O)NCCNc1ccc2c(c1)C(=O)N(C1CCC(=O)NC1=O)C2=O` (stereo not drawn) showed an IC50 [4] of 41 µM.
In the case of `O=C1CCC(N2C(=O)c3ccc([N+](=O)[O-])cc3C2=O)C(=O)N1` (stereo not drawn), the Activity (EA.hy 926 [2]) is reported as “inactive” and the Activity (EA.hy 926 [3]) is reported as “inactive”.
With `O=C1CCC(N2C(=O)c3ccccc3C2=O)C(=O)N1` (stereo not drawn) [THALIDOMIDE] the IC50 [4] was 200 µM and the Activity (Mus musculus [5]) was “inactive”.
With `Nc1ccc2c(c1)C(=O)N(C1CCC(=O)NC1=O)C2=O` (stereo not drawn) the Activity (Mus musculus [1]) was “inactive”.
`NCCNc1cccc2c1C(=O)N(C1CCC(=O)NC1=O)C2=O` (stereo not drawn) showed an IC50 [4] of 150 µM.
In the case of `O=C1CCC(N2C(=O)c3ccc(C(=O)O)cc3C2=O)C(=O)N1` (stereo not drawn), the Activity (Mus musculus [1]) is reported as “Active”.
In the case of `O=C1CCC(N2C(=O)c3ccc(NCCCNC(=O)C(O)C(O)C(O[C@@H]4O[C@H](CO)[C@H](O)[C@H](O)[C@H]4O)C(O)CO)cc3C2=O)C(=O)N1` (stereo partly drawn), the Activity (Mus musculus [1]) is reported as “Active”.
